From patent publication US12702665B2, “ExoVII inhibitor and quinolone antibiotic combination useful for treating bacterial infection” (The United States of America, As Represented by the …, priority 2020, dated 2026) come the findings set out here.

For test [1], the system named is E. coli pgyrAHis transformants deficient in ExoVII. Description: Spotting assay on LB plates containing quinolones. The settings on record: ΔxseA or ΔxseB pgyrAHis transformants vs wild-type. It is filed as cell-based. The text has this: FIG. 8A, FIG. 8B, and FIG. 8C. Expression of a functional GyrAHis has no impact on sensitivities of E. coli strains to quinolones. FIG. 8A. Transformants of a single-copy plasmid bearing the gyrA gene including its endogenous promoter and a C-terminal His-tag (pgyrAHis) were established in either the wild-type, ΔxseA or ΔxseB strains. […] The asterisk denotes a non-specific band. FIG. 8B. Immunoblotting of the same transformants as in FIG. 8A, probed with anti-GyrA antibody (Abcam). FIG. 8C. […] Two technical replicates are shown.
Cell killing assays were carried out as previously described. Briefly, transformants harboring pBAD/Thio, pYtopA or pYtopA-R327W were grown in LB with 2% glucose and 50 μg/mL carbenicillin overnight and diluted 1:100 in LB with 50 μg/mL carbenicillin and grown to OD600 of 0.4. YTop1 or YTop1-R327W were induced by addition of 0.2% arabinose for 0.5-2 hrs. Post-induction cultures were then serially diluted and spotted onto LB plates with 2% glucose and 50 μg/mL carbenicillin and incubated at 37° C. overnight. Alternatively, exponentially growing transformants were serially diluted as indicated and spotted on LB plates containing 50 μg/mL carbenicillin and indicated concentrations of arabinose and incubated at 37° C. overnight.

For test [2], the system named is E. coli strains carrying the gyrA-S83L mutation. Description: MIC of ciprofloxacin (MIC test strips), quinolone-resistant gyrA-S83L strains. In kind it is cell-based.
Test [3] relates to Staphylococcus aureus strain HG003. Nature of the test: Synergy with ciprofloxacin in Staphylococcus aureus cultures (OD600 growth). The settings on record: gram-positive. It is filed as cell-based. The method, then: (§1) OD600 was measured at the end of 4-hr incubation at 37° C. shaking at 225 rpm and cell densities were normalized to samples without any drug treatment. Toxicity of compounds were measured by treating either HEK293 or MEF (1000 cells in 96-well plates seeded 24-hr prior) with indicated concentrations of ExoVII inhibitor for 72 hours. The samples were imaged with a Cytation 5 (BioTek) and the confluency of each well were normalized to untreated samples.

Test [4] has as its system ΔxseA-pgyrA-S83L. Description: Synergy with ciprofloxacin in quinolone-resistant ExoVII-deficient strain (OD600 growth). In kind it is cell-based, E. coli. The method, then:
as §1

Test [5] concerns ΔxseB-pgyrA-S83L. Described as above. In kind it is cell-based, E. coli. The protocol: as §1
In test [6] the target is T1, ExoVII (Escherichia coli, UniProt P04994).
T1 construct: purchased ThermoFisher or NEB
Description: In-vitro ExoVII cleavage assay (IC50 determination). It is filed as biochemical. The protocol: FIG. 13A, FIG. 13B, FIG. 13C, and FIG. 13D. CPID is a specific ExoVII inhibitor. FIG. 13A. […] FIG. 13B. […] FIG. 13C. […] Representative gel image and quantification are shown. IC50 value was averaged from 5 independent experiments. FIG. 13D. CPID is not toxic to HEK293 or MEF cells as determined by relative confluency of seeded cells after 72-hour treatment at the indicated CPID concentration.
ExoVII reactions were incubated at 37° C. for 1 or 2 hrs followed by inactivation at 55° C. for 30 mins before terminated by addition of 20 μL formamide gel loading buffer (96% (v/v) formamide, 10 mM ethylenediaminetetraacetic acid, 1% (w/v) xylene cyanol and 1% (w/v) bromophenol blue). For IC50 determination, ExoVII was preincubated with the inhibitor at 25° C. for 5 mins before addition of equal volume of DNA solution and the reaction continued for another 20-30 mins. The 10 μL reaction contained 0.025 U/μL ExoVII, 20-100 nM internally ratio-labeled DNA substrate, and indicated inhibitor concentration in buffer with 50 mM potassium acetate, 20 mM trisacetate (pH=7.9), 10 mM magnesium acetate, 1 mM DTT and 10% (v/v) DMSO. The percentage of products in the presence of inhibitor was normalized to that of control reaction without any inhibitors, and resulting plot was fitted to a nonlinear regression function in Prism. DNA gyrase was purified as previously described.

For test [7], the system named is WT-pgyrA-S83L. Nature of the test: Synergy with ciprofloxacin in quinolone-resistant strain (OD600 growth). In kind it is cell-based, E. coli. The protocol:
as §1

T1 sequence (P04994 whole entry): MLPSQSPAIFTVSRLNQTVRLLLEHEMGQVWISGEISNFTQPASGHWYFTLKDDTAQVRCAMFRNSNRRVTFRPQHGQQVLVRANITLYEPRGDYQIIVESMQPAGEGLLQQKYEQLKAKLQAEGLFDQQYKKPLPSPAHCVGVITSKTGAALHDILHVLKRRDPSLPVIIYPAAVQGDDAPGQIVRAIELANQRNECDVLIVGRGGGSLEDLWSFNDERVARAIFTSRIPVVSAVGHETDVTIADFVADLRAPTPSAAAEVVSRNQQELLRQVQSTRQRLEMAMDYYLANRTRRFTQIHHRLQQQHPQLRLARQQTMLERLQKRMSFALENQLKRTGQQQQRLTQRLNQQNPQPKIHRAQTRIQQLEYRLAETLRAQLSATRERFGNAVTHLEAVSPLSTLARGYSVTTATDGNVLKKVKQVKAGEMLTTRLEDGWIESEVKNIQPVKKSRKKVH
T1 sequence (P0A8G9 whole entry, further chain): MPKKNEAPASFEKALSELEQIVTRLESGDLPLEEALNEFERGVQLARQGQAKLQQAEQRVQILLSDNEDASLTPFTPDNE

On to `CCn1cc(C(=O)O)c(=O)c2ccc(C)nc21` [nalidixic acid], for which the “Sensitivity of ExoVII-deficient transformants to quinolones” value in test [1] was “hypersensitivity”.
As to `O=C(O)c1cn(C2CC2)c2cc(N3CCNCC3)c(F)cc2c1=O` [ciprofloxacin], in test [2] (gyrA-S83L background), the “Decrease in ciprofloxacin MIC on inactivating either subunit of ExoVII” value is recorded as ~ 2 fold. Besides, the “Increase in ciprofloxacin MIC by gyrA-S83L” value in test [2] (gyrA-S83L vs wild-type gyrA) was found to be 10 fold. Moreover, the “Sensitivity of ExoVII-deficient transformants to quinolones” value in test [1] is “hypersensitivity”.
One may read the IC50 as the concentration needed to halve the response being measured. Regarding `O=C1Cc2ccc(-c3cccc(Cl)c3)cc2C(=O)N1` [CPID, 7-(3-chlorophenyl)-1,3(2H,4H)-Isoquinolinedione], the Synergy with ciprofloxacin result is “clear synergy” in test [3], “not synergistic” in test [4], “not synergistic” in test [5] and “synergistic” in test [7]. Also, in test [6], the half-inhibitory concentration (IC50) was found to be 2.43 µM.
